Usually IC50 stands for the concentration that inhibits the measured activity by half.

Consider three compounds from patent US20060142178A1, “Method of treating cancer” (priority 2002, published 2006).

What all share (assay type): biochemical
Assay [1] has as its target T1, ΔPH-Akt1 (Homo sapiens, UniProt P31749).
T1 construct: PCR deletion mutagenesis was done using the full length Akt1 gene in the pS2neo vector as template; biotin tag (from pS2neo vector); made in house; host or cells: Drosophila S2 cells
The assay can be described thus: Akt kinase assay, GSK3 peptide substrate, Akt1 delta PH. Particulars: pleckstrin homology domain deleted Akt1, GSK3 peptide substrate.

For assay [2], the target named is T2, Human Akt2 (Homo sapiens, UniProt P31751).
T2 construct: a middle T tag was added to the 5′ end of the full length Akt2 using the PCR primer; biotin tag (from pS2neo vector); made in house; host or cells: Drosophila S2 cells
T2 sequence (P31751 whole entry): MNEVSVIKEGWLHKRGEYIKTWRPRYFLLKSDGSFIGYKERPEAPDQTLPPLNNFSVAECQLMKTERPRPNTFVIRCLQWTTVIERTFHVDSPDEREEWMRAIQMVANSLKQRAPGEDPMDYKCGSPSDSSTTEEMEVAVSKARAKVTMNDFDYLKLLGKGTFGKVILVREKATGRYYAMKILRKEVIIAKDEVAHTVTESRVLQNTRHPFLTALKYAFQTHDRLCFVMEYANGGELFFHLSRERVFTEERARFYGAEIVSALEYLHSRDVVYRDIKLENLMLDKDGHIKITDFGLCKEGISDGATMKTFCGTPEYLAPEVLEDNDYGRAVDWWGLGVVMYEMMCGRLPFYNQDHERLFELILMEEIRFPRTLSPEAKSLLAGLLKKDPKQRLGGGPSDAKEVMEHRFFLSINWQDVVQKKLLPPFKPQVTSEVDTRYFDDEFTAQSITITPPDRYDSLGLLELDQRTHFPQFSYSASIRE
Put plainly: Akt kinase assay, GSK3 peptide substrate, Akt2. Particulars: activated full length Akt2, GSK3 peptide substrate. Here is the method:
(§1) Akt and Akt pleckstrin homology domain deletions were activated (Alessi et al. Current Biology 7:261-269) in a reaction containing 10 nM PDK1 (Upstate Biotechnology, Inc.), lipid vesicles (10 μM phosphatidylinositol-3,4,5-trisphosphate—Metreya, Inc, 100 μM phosphatidylcholine and 100 μM phosphatidylserine—Avanti Polar lipids, Inc.) and activation buffer (50 mM Tris pH7.4, 1.0 mM DTT, 0.1 mM EGTA, 1.0 μM Microcystin-LR, 0.1 mM ATP, 10 mM MgCl2, 333 μg/ml BSA and 0.1 mM EDTA). The reaction was incubated at 22° C. for 4 hours. Aliquots were flash frozen in liquid nitrogen.
(§2) Activated AKT isoforms and pleckstrin homology domain deletion constructs were assayed utilizing a GSK-derived biotinylated peptide substrate. The extent of peptide phosphorylation was determined by Homogeneous Time Resolved Fluorescence […] using a lanthanide chelate (Lance)-coupled monoclonal antibody specific for the phosphopeptide in combination with a streptavidin-linked allophycocyanin (SA-APC) fluorophore which will bind to the biotin moiety on the peptide. […]
(§3) The reaction is assembled by adding 16 μL of the ATP/MgCl2 working solution to the appropriate wells of a 96-well microtiter plate. […] The stopped reactions were incubated at room temperature for at least 30 min and then read on the Discovery instrument. […]

Assay [3] addresses T3, Human Akt3 (Homo sapiens, UniProt Q9Y243).
T3 construct: a middle T tag was added to the 5′ end of the full length Akt3 clone; biotin tag (from pS2neo vector); made in house; host or cells: Drosophila S2 cells
The assay can be described thus: Akt kinase assay, GSK3 peptide substrate, Akt3. Particulars: activated full length Akt3, GSK3 peptide substrate. Here is the method:
as §1, §2, §3

Assay [4] deals with T4, ΔPH-Akt2 (Homo sapiens, UniProt P31751).
T4 construct: PCR was performed using the full length Akt2 gene as template; biotin tag (from pS2neo vector); made in house; host or cells: Drosophila S2 cells
T4 sequence (P31751 with tags, fused parts or gaps): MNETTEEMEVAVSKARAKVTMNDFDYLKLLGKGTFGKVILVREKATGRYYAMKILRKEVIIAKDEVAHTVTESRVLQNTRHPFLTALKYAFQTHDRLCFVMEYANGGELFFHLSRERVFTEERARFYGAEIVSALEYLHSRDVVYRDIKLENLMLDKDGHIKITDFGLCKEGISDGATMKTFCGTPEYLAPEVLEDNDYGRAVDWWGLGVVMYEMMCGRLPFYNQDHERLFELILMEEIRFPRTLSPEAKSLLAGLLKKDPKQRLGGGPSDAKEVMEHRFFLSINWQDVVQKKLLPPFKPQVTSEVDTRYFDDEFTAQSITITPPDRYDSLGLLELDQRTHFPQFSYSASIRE
Put plainly: Akt kinase assay, GSK3 peptide substrate, Akt2 delta PH. Particulars: pleckstrin homology domain deleted Akt2, GSK3 peptide substrate.

Assay [5] concerns the target T5, Human Akt1 (Homo sapiens, UniProt P31749).
T5 construct: a middle T tag was added to the 5′ end of the full length Akt1 gene; biotin tag (from pS2neo vector); made in house; host or cells: Drosophila S2 cells
The assay can be described thus: Akt kinase assay, GSK3 peptide substrate, Akt1. Particulars: activated full length Akt1, GSK3 peptide substrate. How it is done:
as §1, §2, §3

Assay [6] concerns the target T6, PKA catalytic subunit (Bos taurus, UniProt P00517).
T6 construct: purchased UBI (Upstate Biotechnology, Inc.) 14-114
The assay can be described thus: PKA assay (counter screen). Particulars: Kemptide substrate; read-out: Counter screens IC50 (μM) PKA. Here is the method:
The reactions were stopped by adding 50 μl of 100 mM EDTA and 100 mM sodium pyrophosphate and mixing.
After the final wash, the filters were allowed to air dry.
In general terms: A counterscreen serves to expose hits that act by an unwanted route or on another target.

Assay [7] concerns PKC. Put plainly: PKC assay (counter screen). Particulars: Myelin basic protein substrate; read-out: Counter screens IC50 (μM) PKC. How it is done:
Each PKC assay consists of the following components:
The assays were assembled in 96 deep-well assay plates. Inhibitor or vehicle (10 μl) was added to 5.0 μl of ^33P-ATP. Reactions were initiated with the addition of the PKC/Myelin Basic Protein working solution and mixing. Reactions were incubated at 30° C. for 20 min. The reactions were stopped by adding 50 μl of 100 mM EDTA and 100 mM sodium pyrophosphate and mixing. Phosphorylated Mylein Basic Protein was collected on PVDF membranes in 96 well filter plates and quantitated by scintillation counting.

T3 sequence (Q9Y243 whole entry): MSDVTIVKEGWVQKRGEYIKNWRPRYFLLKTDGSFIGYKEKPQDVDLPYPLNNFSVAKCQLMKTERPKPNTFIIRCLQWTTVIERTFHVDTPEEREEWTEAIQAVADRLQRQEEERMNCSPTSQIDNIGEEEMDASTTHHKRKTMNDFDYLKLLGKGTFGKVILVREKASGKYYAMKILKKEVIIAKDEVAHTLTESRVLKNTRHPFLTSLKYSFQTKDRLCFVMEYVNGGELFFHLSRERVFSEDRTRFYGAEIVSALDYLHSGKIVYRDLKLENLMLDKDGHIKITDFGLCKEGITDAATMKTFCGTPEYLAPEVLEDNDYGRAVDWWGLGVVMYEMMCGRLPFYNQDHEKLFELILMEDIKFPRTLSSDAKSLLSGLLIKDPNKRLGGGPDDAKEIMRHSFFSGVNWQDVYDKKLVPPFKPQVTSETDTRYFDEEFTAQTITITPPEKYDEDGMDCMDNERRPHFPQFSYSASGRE
T1 sequence (P31749 with tags, fused parts or gaps): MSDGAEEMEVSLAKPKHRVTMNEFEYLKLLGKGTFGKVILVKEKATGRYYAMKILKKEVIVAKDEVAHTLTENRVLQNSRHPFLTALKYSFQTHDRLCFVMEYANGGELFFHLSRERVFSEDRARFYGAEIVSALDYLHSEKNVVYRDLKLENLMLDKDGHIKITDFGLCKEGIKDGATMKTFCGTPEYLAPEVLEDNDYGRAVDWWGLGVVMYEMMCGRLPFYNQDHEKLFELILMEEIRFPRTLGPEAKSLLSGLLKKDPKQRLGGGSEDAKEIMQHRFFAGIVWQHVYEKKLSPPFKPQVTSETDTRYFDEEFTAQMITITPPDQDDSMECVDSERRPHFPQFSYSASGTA
T5 sequence (P31749 whole entry): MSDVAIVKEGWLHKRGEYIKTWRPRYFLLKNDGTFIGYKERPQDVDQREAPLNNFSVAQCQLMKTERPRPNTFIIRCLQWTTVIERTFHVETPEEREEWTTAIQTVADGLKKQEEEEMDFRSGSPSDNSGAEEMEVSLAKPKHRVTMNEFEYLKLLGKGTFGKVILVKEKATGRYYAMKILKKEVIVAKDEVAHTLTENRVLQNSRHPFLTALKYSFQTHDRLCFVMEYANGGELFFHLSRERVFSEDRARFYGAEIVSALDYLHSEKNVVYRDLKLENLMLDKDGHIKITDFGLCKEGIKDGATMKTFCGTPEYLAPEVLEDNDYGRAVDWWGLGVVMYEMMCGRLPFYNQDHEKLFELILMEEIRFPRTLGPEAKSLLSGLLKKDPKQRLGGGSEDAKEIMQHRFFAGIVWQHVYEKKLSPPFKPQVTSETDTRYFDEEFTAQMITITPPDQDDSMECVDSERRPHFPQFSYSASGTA

Take `OCCOc1nn2c(-c3ccccc3)nnc2cc1-c1ccccc1` [Compound 8, 6-(2-Hydroxyethyl)oxy-3,7-diphenyl-[1,2,4]triazolo[4,3-b]pyridazine]: the IC50 in assay [1], in assay [2] and in assay [3] was more than 50 µM throughout.

As to `CN(C)CC(C)(C)CNc1nn2c(-c3ccccc3)nnc2cc1C1CCC1` [Compound 1, N′-(7-Cyclobutyl-3-phenyl-[1,2,4]triazolo[4,3-b]pyridazin-6-yl)-2,2,N,N-tetramethyl-propane-1,3-diamine], the IC50 in assay [4] was more than 100 µM.

Consider `COc1cc(-c2[nH]c(C3CCCN3C)nc2-c2ccncc2)ccc1Cl` (stereo not shown) [Compound 19-11, 1-methyl-2-[5-(4-chloro-3-methoxyphenyl)-4-pyridin-4-yl-1H-imidazol-2-yl]-pyrrolidine], for which the IC50 is 51.7 µM in assay [5]; more than 50 µM in assay [1]; more than 50 µM in assay [2]; 1.4 µM in assay [3]; 0.076 µM in assay [6]; 0.65 µM in assay [7].
